Legend:
[1] = target: T1, FL Hs mtDNA helicase (TWINKLE) (Homo sapiens, UniProt Q96RR1); test: malachite green ATPase assay; type: biochemical; conditions: 8 mM Mg acetate, pH 7.5, room temperature
T1 construct: gene TWNK; full-length, recombinant, Ni-NTA purified
T1 sequence (Q96RR1 32-684): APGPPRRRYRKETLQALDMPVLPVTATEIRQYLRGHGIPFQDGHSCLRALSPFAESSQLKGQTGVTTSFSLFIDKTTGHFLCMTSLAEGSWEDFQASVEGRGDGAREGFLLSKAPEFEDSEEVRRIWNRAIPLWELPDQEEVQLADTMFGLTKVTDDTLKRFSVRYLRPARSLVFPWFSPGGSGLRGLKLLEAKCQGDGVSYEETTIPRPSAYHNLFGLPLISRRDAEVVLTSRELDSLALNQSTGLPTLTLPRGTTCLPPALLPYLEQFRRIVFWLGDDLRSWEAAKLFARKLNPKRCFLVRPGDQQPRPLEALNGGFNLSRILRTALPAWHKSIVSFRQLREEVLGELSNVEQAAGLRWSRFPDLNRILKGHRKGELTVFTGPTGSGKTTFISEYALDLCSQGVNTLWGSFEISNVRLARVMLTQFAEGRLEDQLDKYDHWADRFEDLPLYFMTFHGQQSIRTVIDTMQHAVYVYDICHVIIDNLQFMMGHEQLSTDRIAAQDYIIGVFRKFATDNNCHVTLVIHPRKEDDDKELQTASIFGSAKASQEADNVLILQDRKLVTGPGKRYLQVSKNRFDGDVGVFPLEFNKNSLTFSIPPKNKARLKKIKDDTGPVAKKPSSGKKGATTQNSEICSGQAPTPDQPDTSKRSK

ΔN-helicase (P66) = target: T2, ΔN-helicase (P66) (Homo sapiens, UniProt Q96RR1); test: malachite green ATPase assay; type: biochemical; conditions: 8 mM Mg acetate, pH 7.5, room temperature
T2 construct: gene TWNK; variant lacking the N-terminus, termed P66 in Ziebarth et al. 2007
T2 sequence (Q96RR1 85-684 limits assumed): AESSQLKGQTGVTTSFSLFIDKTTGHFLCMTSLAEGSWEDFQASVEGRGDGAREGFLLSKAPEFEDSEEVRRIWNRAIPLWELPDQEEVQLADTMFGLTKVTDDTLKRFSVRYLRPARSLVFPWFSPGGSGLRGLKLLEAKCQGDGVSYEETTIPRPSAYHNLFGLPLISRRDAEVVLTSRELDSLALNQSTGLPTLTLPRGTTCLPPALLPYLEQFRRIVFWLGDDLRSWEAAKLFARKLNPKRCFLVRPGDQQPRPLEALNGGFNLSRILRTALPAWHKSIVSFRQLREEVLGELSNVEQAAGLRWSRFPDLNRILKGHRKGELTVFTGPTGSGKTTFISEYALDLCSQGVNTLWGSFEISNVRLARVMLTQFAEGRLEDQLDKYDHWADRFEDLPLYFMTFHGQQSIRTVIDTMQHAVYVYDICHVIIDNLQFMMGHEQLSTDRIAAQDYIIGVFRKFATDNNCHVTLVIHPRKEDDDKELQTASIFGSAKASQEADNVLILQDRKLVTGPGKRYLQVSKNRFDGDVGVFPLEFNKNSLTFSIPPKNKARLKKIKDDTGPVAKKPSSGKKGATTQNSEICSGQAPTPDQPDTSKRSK

Nc1ncnc2c1ncn2[C@@H]1O[C@H](COP(=O)(O)OP(=O)(O)OP(=O)(O)O)[C@@H](O)[C@H]1O [ATP]
malachite green ATPase assay [1]: ATP hydrolysis of FL helicase was increased with added calf thymus DNA | malachite green ATPase assay (ΔN-helicase (P66)): the ATPase activity of ΔN-helicase, termed P66
